# Experimental data taken from patent publication EP1362589A1, “The use of R(+)-alpha-(2,3-dimethoxyphenyl)-1-(2-(4-fluorophenyl)ethyl)-4- piperidinemethanol for the treatment of sleep disorders” (Aventis Pharmaceuticals Inc., priority 1998, dated 2000).
# How the values were obtained:
# Assay type in all cases: in vivo
# [1] = system: newborn Sprague Dawley rats; assay: Depression of genioglossal EMG induced by L-Tryptophan and Pargyline
# Description: (§1) Experiments were carried out on newborn Sprague Dawley rats from Iffa Credo breeding centre. The animals were anaesthetised by intraperitoneal injection of low doses of sodium pentobarbitone (7-10mg/kg), kept lying (dorsal cubitus) on a warming blanket and were spontaneously ventilating.
# (§2) The EMG activity of the genioglossal muscles and the diaphragm were recorded with fine insulated wires (bipolar recordings) inserted within the muscles, filtered (100-3,000 Hz), amplified (x 5-10,000) and integrated (time constant 50 ms). The rib cage movements were recorded via a captor gently touching the lower ribs and/or the abdominal wall. The air flow changes resulting from the respiratory chest movements were recorded via a facial mask and a highly sensitive pressure recorder.
# Ten to fifteen minutes after induction of anaesthesia, the animals received first an intraperitoneal injection of the COMPOUND, and a control recording was taken to define the mean amplitude of the integrated EMGs. Then, the animal received an intraperitoneal injection of L-Tryptophan plus Pargyline ("L-Trp+Parg") 10mg/kg and 50mg/kg, respectively, and the changes in EMG amplitudes were checked every 10 minutes and were expressed as % of control values.
# [2] = system: newborn Sprague Dawley rats; assay: Occurrence of obstructive apneas induced by L-Tryptophan and Pargyline injection
# Description: Intraperitoneal application of L-Tryptophan (10mg/kg) and Pargyline (50mg/kg) to anaesthesized newborn rats depressed the amplitude of the inspiratory discharges of the genioglossal muscle and induced obstructive apneas (OA).
# as §1, §2
# [3] = system: healthy subjects; assay: Single oral dose in healthy subjects, reported sedation (Example 4A); conditions: orally
# Description: Forty percent of the subjects receiving the 20mg dose (2 out of 5) and sixty percent of the subjects receiving the 10mg dose (3 out of 5) experienced mild to moderate sedation. […]
# [4] = system: patients diagnosed with schizophrenia; assay: Oral twice-daily dosing in patients with schizophrenia, reported insomnia and somnolence (Example 4B); conditions: orally
# Description: Forty percent of the subjects receiving the 20mg dose (2 out of 5) and sixty percent of the subjects receiving the 10mg dose (3 out of 5) experienced mild to moderate sedation. […] The following data were reported.
# [5] = system: healthy subjects; assay: Oral doses in healthy subjects, reported drowsiness (Example 4C); conditions: for Drowsiness, % of subjects / Drowsiness, n subjects: group n=4
# Description: The following data were reported. […] Only the group receiving the 72mg dose reported drowsiness ([…]).
# [6] = system: healthy subjects; assay: Oral doses 3-72 mg in healthy subjects, reported drowsiness (Example 4D); conditions: 72mg dose (n=4); only this group among 3, 9, 18, 36 and 72mg reported drowsiness
# Description: Only the group receiving the 72mg dose reported drowsiness (n=3).
compound,measurement,setting,value
"Cn1c(=O)c2[nH]cnc2n(C)c1=O [theophylline, reference compound]",prevention of depression of the amplitude of GG inspiratory discharges by L-Trp+Prg,"[1]; 10mg/kg, five newborn rats",not prevented
same,prevention of depression of the amplitude of GG inspiratory discharges by L-Trp+Prg,"[1]; 30mg/kg, 5 animals",not prevented
same,prevention of induction of OAs after L-Trp+Prg injection,[2]; 10 mg/kg,not prevented
same,prevention of induction of OAs after L-Trp+Prg injection,[2]; 30 mg/kg,not prevented
"COc1cccc([C@H](O)C2CCN(CCc3ccc(F)cc3)CC2)c1OC [COMPOUND, R-(+)-α-(2,3-Dimethoxyphenyl)-1-[2-(4-fluorophenyl)ethyl]-4-piperidinemethanol]",subjects experienced mild to moderate sedation,[3]; single 10mg dose,3 out of 5
same,subjects experienced mild to moderate sedation,[3]; single 20mg dose,2 out of 5
same,"Insomnia, % of subjects",[4]; 10 mg (5mg twice daily),N=0; 0%
same,"Insomnia, N (number of subjects that reported the effect)",[4]; 10 mg (5mg twice daily),N=0; 0%
same,"Somnolence, % of subjects",[4]; 10 mg (5mg twice daily),20%
same,"Somnolence, N (number of subjects that reported the effect)",[4]; 10 mg (5mg twice daily),3
same,"Insomnia, % of subjects",[4]; 20 mg (10mg twice daily),21.4%
same,"Insomnia, N (number of subjects that reported the effect)",[4]; 20 mg (10mg twice daily),3
same,"Somnolence, % of subjects",[4]; 20 mg (10mg twice daily),15.4%
same,"Somnolence, N (number of subjects that reported the effect)",[4]; 20 mg (10mg twice daily),N=1;
same,"Insomnia, % of subjects",[4]; 40 mg (20mg twice daily),23.1%
same,"Insomnia, N (number of subjects that reported the effect)",[4]; 40 mg (20mg twice daily),3
same,"Somnolence, % of subjects",[4]; 40 mg (20mg twice daily),15.4%
same,"Somnolence, N (number of subjects that reported the effect)",[4]; 40 mg (20mg twice daily),N=2;
same,"Drowsiness, % of subjects",[5]; 9 mg orally,50%
same,"Drowsiness, n subjects",[5]; 9 mg orally,2
same,"Drowsiness, % of subjects",[5]; 18 mg orally,100%
same,"Drowsiness, n subjects",[5]; 18 mg orally,4
same,"Drowsiness, % of subjects",[5]; 36 mg orally,100%
same,"Drowsiness, n subjects",[5]; 36 mg orally,4
same,drowsiness rating,[5]; 72 mg and above,moderate to severe
same,"Drowsiness, % of subjects",[5]; 72 mg orally,75%
same,"Drowsiness, n subjects",[5]; 72 mg orally,3
same,"Drowsiness, % of subjects",[5]; 108 mg orally,100%
same,"Drowsiness, n subjects",[5]; 108 mg orally,4
same,"Drowsiness, % of subjects",[5]; 138 mg orally,100%
same,"Drowsiness, n subjects",[5]; 138 mg orally,4
same,drowsiness rating,[5]; doses below 72 mg,mild or moderate
same,"reported drowsiness, n subjects",[6],3
same,prevention of the depression of genioglossal (GG) discharge induced by L-Trp+Parg,"[1]; pre-treatment 0.1 mg/kg intraperitoneal, ten animals",did not prevent
same,prevention of the depression of genioglossal (GG) discharge induced by L-Trp+Parg,"[1]; pre-treatment 1mg/kg intraperitoneal, ten newborn rats",efficient in preventing the GG depression
same,prevention of the depression of genioglossal (GG) discharge induced by L-Trp+Parg,"[1]; pre-treatment 3mg/kg intraperitoneal, ten animals",confirmed the efficiency
same,animals that died of respiratory distress,[2]; pre-treatment 0.1 mg/kg,4 of the 10
same,newborn rats in which L-Trp+Parg injection induced OAs,[2]; pre-treatment 0.1 mg/kg,9 of 10
same,newborn rats that did not present short lasting OAs at all,[2]; pre-treatment 1mg/kg,Five out of ten
same,newborn rats which displayed OAs,[2]; pre-treatment 1mg/kg,5 of 10
same,newborn rats with long lasting OAs,[2]; pre-treatment 1mg/kg,one
same,survival to L-Trp+Parg injection,[2]; pre-treatment 1mg/kg,all animals survived
same,animals with infrequent OAs (less than 5 short lasting OAs in 60 minutes),"[2]; pre-treatment 1mg/kg, among the 5 of 10 which displayed OAs",2
same,peak frequency of occurrence of short lasting OAs,"[2]; pre-treatment 1mg/kg, between 20-40 min after the injection, mean curve",4 OAs per 10 minute period
same,animals that displayed long lasting OAs,[2]; pre-treatment 3mg/kg,None of the 10
same,rats with a total of less than 3 short lasting Oas,[2]; pre-treatment 3mg/kg,3 of 10
same,rats with no short lasting Oas,[2]; pre-treatment 3mg/kg,5 of 10
same,survival,[2]; pre-treatment 3mg/kg,all survived
same,treated rats with frequent short lasting Oas,[2]; pre-treatment 3mg/kg,2 of 10
